Measured values: patent publication US20080009418A1, “Selective Inhibitors” (Alchemia LTD., priority 2004, published 2008)

How the values were obtained:
Human δ-opioid (DOP) = biological target: T1, Human δ-opioid (DOP) (Homo sapiens, UniProt P41143); assay: Radioligand binding, human δ-opioid (DOP) membranes, FlashPlate, [3H]-Bremazocine; settings: compound at 10 μM, [3H]-Bremazocine; for A1: inhibition of radioligand binding: human DOP membranes
T1 construct: purchased Perkin Elmer Biosignal
Experimental: (§1) Cloned receptor membrane preparations from Perkin Elmer Biosignal™ were used in radioligand binding assays.
(§2) A1 Human δ-opioid (DOP), A2 Human κ-Opioid (KOP), A3 Human Melanocortin (MC3), A4 Human Melanocortin (MC4), A5 Human melanocortin (MC5), A6 Human melanin-concentrating hormone (MCH1), A7 Human μ-opioid (MOP), A8 Human neurokinin (NK1), A9 Human neuropeptide Y (NPY-Y1), A10 Human opioid (ORL1) A11 Mouse urotensin (mUR2)
(§3) Screening experiments were performed in either a 50 μl filtration or 25 μl FlashPlate assay format using the following protocol:
(§4) 19.5 μl buffer, 0.5 μl of compound diluted in DMSO, 5 μl of radioligand diluted in binding buffer.
(§5) The day prior to performing the experiment 50 μl DMSO was added to each well of the compound plates to yield compounds at a final concentration of 10 mM. Daughter plates were then created by diluting the compounds further in DMSO to a concentration of 0.5 mM. The mother plates were frozen immediately.
(§6) Immobilize membranes into FlashPlate microplates using PerkinElmer BioSignal's proprietary coating procedure. Dilute radioligand to 5× the final concentration in binding buffer. Add 19.5 μl buffer to each well of the FlashPlate. Add 0.5 μl of DMSO (total value, 5 wells), reference ligand (non-specific value, 3 wells) or compound to the corresponding wells in the FlashPlate microplate. Initiate the reaction by adding 5 μl of radioligand to each well. Apply TopSeal-A onto FlashPlate microplates. Incubate at room temperature for 1 hour in the dark. Count for 30 seconds per well on TopCount Microplate Scintillation and Luminescence Counter (PerkinElmer) using a count delay of 60 seconds.
(§7) Percentage inhibition was calculated using the following formula: [formula]

Human κ-Opioid (KOP) = biological target: T2, Human κ-Opioid (KOP) (Homo sapiens, UniProt P41145); assay: Radioligand binding, human κ-opioid (KOP) membranes, filtration, [3H]-Diprenorphine; settings: compound at 10 μM, [3H]-Diprenorphine; for A2: inhibition of radioligand binding: human KOP membranes
T2 construct: purchased Perkin Elmer Biosignal
T2 sequence (P41145 whole entry): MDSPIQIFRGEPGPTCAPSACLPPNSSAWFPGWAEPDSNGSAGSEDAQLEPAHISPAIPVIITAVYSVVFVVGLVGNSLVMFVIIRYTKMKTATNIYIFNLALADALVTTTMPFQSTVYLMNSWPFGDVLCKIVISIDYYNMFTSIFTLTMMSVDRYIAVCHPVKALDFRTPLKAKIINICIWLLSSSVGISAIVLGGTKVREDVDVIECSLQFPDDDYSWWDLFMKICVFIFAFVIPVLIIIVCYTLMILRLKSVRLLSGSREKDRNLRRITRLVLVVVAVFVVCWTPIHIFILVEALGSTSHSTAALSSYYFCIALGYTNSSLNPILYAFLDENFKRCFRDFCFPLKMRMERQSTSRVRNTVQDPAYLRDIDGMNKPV
Experimental: as §1, §2, §3
(§8) 44 μl membranes diluted in buffer, 1 μl of compound diluted in DMSO, 5 μl of radioligand diluted in binding buffer.
as §5
(§9) Thaw membranes on ice then dilute membranes in binding buffer at a concentration of 1 Unit per well. Dilute radio-ligand to 10 times the final concentration in binding buffer. Add 44 μl of diluted membranes to each well of the deep-well plate. Add 1 μl of DMSO (total value, 5 wells), reference ligand (non-specific value, 3 wells) or compound to the corresponding wells in the deep-well plate. Initiate the reaction by adding 5 μl of radioligand to each well and vortex gently. Incubate at room temperature for 1 hour. During incubation, pre-incubate the Multiscreen Harvest plates in 0.3% PEI. Filter over pre-soaked Multiscreen Harvest plates using a Tomtec Harvester. Wash 9 times with 500 μl of cold 50 mM Tris-HCl pH 7.4 at 4° C. and air-dry for 30 minutes at room temperature under a fume hood. Apply a bottom seal to the Multiscreen Harvest plates. Add 25 μl of MicroScint-0 to each well. Apply TopSeal-A to the plate. Count for 30 seconds per well on TopCount Microplate Scintillation and Luminescence Counter (PerkinElmer) using a count delay of 60 seconds.
as §7

Human Melanocortin (MC3) = biological target: T3, Human Melanocortin (MC3) (Homo sapiens, UniProt P41968); assay: Radioligand binding, human melanocortin MC3 membranes, FlashPlate, [125I]-NDP-αMSH; settings: compound at 10 μM, [125I]-NDP-αMSH; for A3: inhibition of radioligand binding: human MC3 membranes
T3 construct: purchased Perkin Elmer Biosignal
T3 sequence (P41968 whole entry): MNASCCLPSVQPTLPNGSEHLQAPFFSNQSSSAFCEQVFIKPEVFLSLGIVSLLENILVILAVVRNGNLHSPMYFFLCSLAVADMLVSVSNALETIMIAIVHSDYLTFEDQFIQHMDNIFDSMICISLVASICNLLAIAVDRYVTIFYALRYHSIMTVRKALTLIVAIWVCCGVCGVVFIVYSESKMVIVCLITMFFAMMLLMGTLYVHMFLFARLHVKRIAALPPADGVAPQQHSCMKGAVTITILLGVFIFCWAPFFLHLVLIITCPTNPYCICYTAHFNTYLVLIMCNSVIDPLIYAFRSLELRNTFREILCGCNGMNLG
Experimental: as §1, §2, §3, §4, §5, §6, §7

Human Melanocortin (MC4) = biological target: T4, Human Melanocortin (MC4) (Homo sapiens, UniProt P32245); assay: Radioligand binding, human melanocortin MC4 membranes, FlashPlate, [125I]-NDP-αMSH; settings: compound at 10 μM, [125I]-NDP-αMSH; for A4: inhibition of radioligand binding: human MC4 membranes
T4 construct: purchased Perkin Elmer Biosignal
T4 sequence (P32245 whole entry): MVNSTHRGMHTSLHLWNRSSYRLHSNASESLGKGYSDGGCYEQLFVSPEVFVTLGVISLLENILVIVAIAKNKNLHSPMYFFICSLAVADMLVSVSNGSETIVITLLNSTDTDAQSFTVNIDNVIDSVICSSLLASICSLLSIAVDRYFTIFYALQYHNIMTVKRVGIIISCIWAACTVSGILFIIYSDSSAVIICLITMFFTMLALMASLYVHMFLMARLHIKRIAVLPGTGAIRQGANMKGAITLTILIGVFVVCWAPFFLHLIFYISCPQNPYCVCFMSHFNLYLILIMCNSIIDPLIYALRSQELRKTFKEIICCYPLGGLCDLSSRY
Experimental: as §1, §2, §3, §4, §5, §6, §7

Human melanocortin (MC5) = biological target: T5, Human melanocortin (MC5) (Homo sapiens, UniProt P33032); assay: Radioligand binding, human melanocortin MC5 membranes, FlashPlate, [125I]-NDP-αMSH; settings: compound at 10 μM, [125I]-NDP-αMSH; for A5: inhibition of radioligand binding: human MC5 membranes
T5 construct: purchased Perkin Elmer Biosignal
T5 sequence (P33032 whole entry): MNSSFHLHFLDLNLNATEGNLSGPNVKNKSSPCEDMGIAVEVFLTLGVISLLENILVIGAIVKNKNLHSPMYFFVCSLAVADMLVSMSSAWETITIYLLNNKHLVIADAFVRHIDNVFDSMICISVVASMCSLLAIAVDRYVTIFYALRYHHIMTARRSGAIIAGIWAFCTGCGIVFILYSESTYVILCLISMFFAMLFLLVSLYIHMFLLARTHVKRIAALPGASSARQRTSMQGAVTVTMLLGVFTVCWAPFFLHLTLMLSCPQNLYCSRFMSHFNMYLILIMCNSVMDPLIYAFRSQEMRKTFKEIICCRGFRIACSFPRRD
Experimental: as §1, §2, §3, §4, §5, §6, §7

[1] = biological target: T6, Human melanin-concentrating hormone (MCH1) (Homo sapiens, UniProt Q99705); assay: Radioligand binding, human melanin-concentrating hormone MCH1 membranes, FlashPlate, [125I]-S36057; settings: compound at 10 μM; for A6: inhibition of radioligand binding, human melanin-concentrating hormone (MCH1): [125I]-S36057; for A6: inhibition of radioligand binding: [125I]-S36057, human MCH1 membranes
T6 construct: purchased Perkin Elmer Biosignal
T6 sequence (Q99705 whole entry): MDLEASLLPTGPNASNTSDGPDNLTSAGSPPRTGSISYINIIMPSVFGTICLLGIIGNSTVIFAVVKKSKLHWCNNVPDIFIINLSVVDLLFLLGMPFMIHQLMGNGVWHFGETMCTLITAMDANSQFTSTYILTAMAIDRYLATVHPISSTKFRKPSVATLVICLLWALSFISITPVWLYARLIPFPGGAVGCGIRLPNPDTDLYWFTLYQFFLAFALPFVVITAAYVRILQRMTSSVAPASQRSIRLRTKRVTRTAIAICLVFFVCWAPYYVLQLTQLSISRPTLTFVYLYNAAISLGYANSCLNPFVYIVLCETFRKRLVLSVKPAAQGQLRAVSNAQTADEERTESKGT
Experimental: as §1, §2, §3, §4, §5, §6, §7

Human μ-opioid (MOP) = biological target: T7, Human μ-opioid (MOP) (Homo sapiens, UniProt P35372); assay: Radioligand binding, human μ-opioid (MOP) membranes, FlashPlate, [3H]-Naloxone; settings: compound at 10 μM, [3H]-Naloxone; for A7: inhibition of radioligand binding: human MOP membranes
T7 construct: purchased Perkin Elmer Biosignal
T7 sequence (P35372 whole entry): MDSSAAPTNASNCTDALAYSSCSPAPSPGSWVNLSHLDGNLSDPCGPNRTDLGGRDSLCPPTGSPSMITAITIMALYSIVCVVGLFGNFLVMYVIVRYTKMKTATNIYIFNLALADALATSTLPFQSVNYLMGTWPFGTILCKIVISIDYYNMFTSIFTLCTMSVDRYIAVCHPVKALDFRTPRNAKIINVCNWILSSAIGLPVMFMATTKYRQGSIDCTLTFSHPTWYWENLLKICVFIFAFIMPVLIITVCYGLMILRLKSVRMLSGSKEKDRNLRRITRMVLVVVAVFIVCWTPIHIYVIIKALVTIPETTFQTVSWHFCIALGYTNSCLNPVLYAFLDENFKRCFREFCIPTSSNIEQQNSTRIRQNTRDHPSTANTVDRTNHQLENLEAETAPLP
Experimental: as §1, §2, §3, §4, §5, §6, §7

Human neurokinin (NK1) = biological target: T8, Human neurokinin (NK1) (Homo sapiens, UniProt P25103); assay: Radioligand binding, human neurokinin NK1 membranes, filtration, [125I]-Substance P; settings: compound at 10 μM, [125I]-Substance P; for A8: inhibition of radioligand binding: human NK1 membranes
T8 construct: purchased Perkin Elmer Biosignal
T8 sequence (P25103 whole entry): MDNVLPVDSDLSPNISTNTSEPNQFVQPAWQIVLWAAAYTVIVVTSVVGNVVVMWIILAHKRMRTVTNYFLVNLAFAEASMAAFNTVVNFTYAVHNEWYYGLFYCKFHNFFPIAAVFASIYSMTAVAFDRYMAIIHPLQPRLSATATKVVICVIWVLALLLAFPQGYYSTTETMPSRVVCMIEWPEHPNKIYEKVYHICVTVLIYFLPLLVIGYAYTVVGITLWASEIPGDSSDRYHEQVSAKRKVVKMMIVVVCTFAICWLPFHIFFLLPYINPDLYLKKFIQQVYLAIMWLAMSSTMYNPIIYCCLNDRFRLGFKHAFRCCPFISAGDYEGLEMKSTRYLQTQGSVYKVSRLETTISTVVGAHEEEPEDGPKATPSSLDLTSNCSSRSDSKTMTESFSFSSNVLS
Experimental: as §1, §2, §3, §8, §5, §9, §7

[2] = biological target: T9, Human neuropeptide Y (NPY-Y1) (Homo sapiens, UniProt P25929); assay: Radioligand binding, human neuropeptide Y NPY-Y1 membranes, FlashPlate, [125I]-PYY; settings: compound at 10 μM, [125I]-PYY; for A9: inhibition of radioligand binding: human NPY-Y1 membranes
T9 construct: purchased Perkin Elmer Biosignal
T9 sequence (P25929 1-384): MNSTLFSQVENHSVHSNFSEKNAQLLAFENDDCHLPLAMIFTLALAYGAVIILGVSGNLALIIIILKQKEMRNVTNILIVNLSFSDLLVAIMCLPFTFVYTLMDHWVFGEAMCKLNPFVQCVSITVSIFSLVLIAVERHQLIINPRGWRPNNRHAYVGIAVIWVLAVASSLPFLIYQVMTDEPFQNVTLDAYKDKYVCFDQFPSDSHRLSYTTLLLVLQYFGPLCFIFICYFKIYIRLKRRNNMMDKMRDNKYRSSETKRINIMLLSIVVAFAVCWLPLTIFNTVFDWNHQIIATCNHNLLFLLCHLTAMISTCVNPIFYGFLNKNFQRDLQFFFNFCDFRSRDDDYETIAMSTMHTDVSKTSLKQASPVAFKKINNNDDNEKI
Experimental: as §1, §2, §3, §4, §5, §6, §7

Human opioid (ORL1) = biological target: T10, Human opioid (ORL1) (Homo sapiens, UniProt P41146); assay: Radioligand binding, human opioid ORL1 membranes, FlashPlate, [125I]-Nociceptin; settings: compound at 10 μM, [125I]-Nociceptin; for A10: inhibition of radioligand binding: human ORL1 membranes
T10 construct: purchased Perkin Elmer Biosignal
T10 sequence (P41146 whole entry): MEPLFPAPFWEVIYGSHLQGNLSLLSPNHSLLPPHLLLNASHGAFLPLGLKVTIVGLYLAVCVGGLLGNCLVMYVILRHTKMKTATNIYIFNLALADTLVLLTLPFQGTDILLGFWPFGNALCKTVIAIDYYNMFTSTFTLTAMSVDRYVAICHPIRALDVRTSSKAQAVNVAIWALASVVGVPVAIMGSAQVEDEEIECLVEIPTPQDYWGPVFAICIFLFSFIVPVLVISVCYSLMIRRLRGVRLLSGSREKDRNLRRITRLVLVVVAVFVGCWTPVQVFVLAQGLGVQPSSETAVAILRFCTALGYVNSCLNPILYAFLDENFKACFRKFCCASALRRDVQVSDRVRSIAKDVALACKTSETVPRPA
Experimental: as §1, §2, §3, §4, §5, §6, §7

Mouse urotensin (mUR2) = biological target: T11, Mouse urotensin (mUR2) (Mus musculus, UniProt Q8VIH9); assay: Radioligand binding, mouse urotensin mUR2 membranes, FlashPlate, [125I]-Urotensin II; settings: compound at 10 μM, [125I]-Urotensin II; for A11: inhibition of radioligand binding: mouse mUR2 membranes
T11 construct: purchased Perkin Elmer Biosignal
T11 sequence (Q8VIH9 1-385): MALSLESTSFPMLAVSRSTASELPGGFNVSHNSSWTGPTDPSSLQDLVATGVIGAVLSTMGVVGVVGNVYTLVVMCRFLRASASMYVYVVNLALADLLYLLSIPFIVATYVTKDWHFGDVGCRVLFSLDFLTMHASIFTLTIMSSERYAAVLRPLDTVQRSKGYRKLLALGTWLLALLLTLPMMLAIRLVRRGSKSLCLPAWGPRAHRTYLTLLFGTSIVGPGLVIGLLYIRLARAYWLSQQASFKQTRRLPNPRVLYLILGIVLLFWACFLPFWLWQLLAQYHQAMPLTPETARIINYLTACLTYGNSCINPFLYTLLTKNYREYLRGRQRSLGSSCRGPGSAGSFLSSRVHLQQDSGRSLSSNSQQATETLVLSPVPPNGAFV
Experimental: as §1, §2, §3, §4, §5, §6, §7

T1 sequence (P41143 whole entry): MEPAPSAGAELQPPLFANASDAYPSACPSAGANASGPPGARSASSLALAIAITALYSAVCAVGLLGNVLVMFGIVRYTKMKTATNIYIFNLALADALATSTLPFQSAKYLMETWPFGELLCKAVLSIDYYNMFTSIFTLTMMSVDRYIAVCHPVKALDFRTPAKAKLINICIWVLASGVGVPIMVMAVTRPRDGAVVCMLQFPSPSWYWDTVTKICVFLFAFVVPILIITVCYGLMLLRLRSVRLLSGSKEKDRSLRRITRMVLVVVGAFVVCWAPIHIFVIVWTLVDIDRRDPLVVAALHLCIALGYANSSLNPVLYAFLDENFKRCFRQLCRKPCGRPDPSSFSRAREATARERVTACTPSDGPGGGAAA

Row | SMILES | A1: inhibition of radioligand binding, human δ-opioid (DOP) (Human δ-opioid (DOP)) | A2: inhibition of radioligand binding, human κ-opioid (KOP) (Human κ-Opioid (KOP)) | A3: inhibition of radioligand binding, human melanocortin (MC3) (Human Melanocortin (MC3)) | A4: inhibition of radioligand binding, human melanocortin (MC4) (Human Melanocortin (MC4)) | A5: inhibition of radioligand binding, human melanocortin (MC5) (Human melanocortin (MC5)) | A6: inhibition of radioligand binding, human melanin-concentrating hormone (MCH1) [1] | A7: inhibition of radioligand binding, human μ-opioid (MOP) (Human μ-opioid (MOP)) | A8: inhibition of radioligand binding, human neurokinin (NK1) (Human neurokinin (NK1)) | A9: inhibition of radioligand binding, human neuropeptide Y (NPY-Y1) [2] | A10: inhibition of radioligand binding, human opioid (ORL1) (Human opioid (ORL1)) | A11: inhibition of radioligand binding, mouse urotensin (mUR2) (Mouse urotensin (mUR2)) | A1: inhibition of radioligand binding (Human δ-opioid (DOP)) | A2: inhibition of radioligand binding (Human κ-Opioid (KOP)) | A3: inhibition of radioligand binding (Human Melanocortin (MC3)) | A4: inhibition of radioligand binding (Human Melanocortin (MC4)) | A6: inhibition of radioligand binding [1] | A7: inhibition of radioligand binding (Human μ-opioid (MOP)) | A8: inhibition of radioligand binding (Human neurokinin (NK1)) | A9: inhibition of radioligand binding [2] | A10: inhibition of radioligand binding (Human opioid (ORL1)) | further results
1 | N=C(N)NCCC(=O)N[C@H]1C(OCc2ccc(Cl)cc2)O[C@H](COCc2ccc(Cl)cc2)[C@@H](O)[C@@H]1OCc1ccc2ccccc2c1 (some centres unmarked) [compound 532] | − (“−” indicates less than 50% inhibition at 10 μM) | + (“+” indicates greater than 50% inhibition at 10 μM) | + (“+” indicates greater than 50% inhibition at 10 μM) | + (“+” indicates greater than 50% inhibition at 10 μM) | + (“+” indicates greater than 50% inhibition at 10 μM) | + (“+” indicates greater than 50% inhibition at 10 μM) | + (“+” indicates greater than 50% inhibition at 10 μM) | + (“+” indicates greater than 50% inhibition at 10 μM) | − (“−” indicates less than 50% inhibition at 10 μM) | + (“+” indicates greater than 50% inhibition at 10 μM) | − (“−” indicates less than 50% inhibition at 10 μM) | – | – | – | – | – | – | – | – | – | –
2 | COC[C@H]1OC(OCc2ccc(Cl)cc2)[C@H](NC(=O)CCCN)[C@@H](OCc2ccc3ccccc3c2)[C@@H]1O (single isomer, unassigned) [compound 344] | − (“−” indicates less than 50% inhibition at 10 μM) | − (“−” indicates less than 50% inhibition at 10 μM) | − (“−” indicates less than 50% inhibition at 10 μM) | − (“−” indicates less than 50% inhibition at 10 μM) | − (“−” indicates less than 50% inhibition at 10 μM) | − (“−” indicates less than 50% inhibition at 10 μM) | − (“−” indicates less than 50% inhibition at 10 μM) | + (“+” indicates greater than 50% inhibition at 10 μM) | − (“−” indicates less than 50% inhibition at 10 μM) | − (“−” indicates less than 50% inhibition at 10 μM) | − (“−” indicates less than 50% inhibition at 10 μM) | – | – | – | – | – | – | – | – | – | –
3 | NCCC(=O)NC1C(OCc2ccc3ccccc3c2)OC(COCc2ccccc2)C(O)C1OCc1ccccc1 (centres unmarked) [compound 451] | – | – | – | – | – | – | – | – | – | – | – | − (“−” indicates less than 50% inhibition at 10 μM) | − (“−” indicates less than 50% inhibition at 10 μM) | − (“−” indicates less than 50% inhibition at 10 μM) | + (“+” indicates greater than 50% inhibition at 10 μM) | − (“−” indicates less than 50% inhibition at 10 μM) | − (“−” indicates less than 50% inhibition at 10 μM) | + (“+” indicates greater than 50% inhibition at 10 μM) | − (“−” indicates less than 50% inhibition at 10 μM) | − (“−” indicates less than 50% inhibition at 10 μM) | A5: inhibition of radioligand binding (Human melanocortin (MC5); 10 µM): − (“−” indicates less than 50% inhibition at 10 μM); A11: inhibition of radioligand binding (Mouse urotensin (mUR2)): − (“−” indicates less than 50% inhibition at 10 μM)
4 | N=C(N)NCCCC(=O)NC1C(OCc2ccc(-c3ccccc3)cc2)OC(COCc2ccccc2)C(O)C1OCc1ccccc1 (centres unmarked) [compound 435] | – | – | – | – | – | – | – | – | – | – | – | − (“−” indicates less than 50% inhibition at 10 μM) | + (“+” indicates greater than 50% inhibition at 10 μM) | + (“+” indicates greater than 50% inhibition at 10 μM) | + (“+” indicates greater than 50% inhibition at 10 μM) | + (“+” indicates greater than 50% inhibition at 10 μM) | + (“+” indicates greater than 50% inhibition at 10 μM) | + (“+” indicates greater than 50% inhibition at 10 μM) | − (“−” indicates less than 50% inhibition at 10 μM) | + (“+” indicates greater than 50% inhibition at 10 μM) | A5: inhibition of radioligand binding (Human melanocortin (MC5)): + (“+” indicates greater than 50% inhibition at 10 μM); A11: inhibition of radioligand binding (Mouse urotensin (mUR2)): − (“−” indicates less than 50% inhibition at 10 μM)
